Drawing on patent US9981916B2 (Genentech, Inc., priority 2013, dated 2018), this text covers IC50 for 22 molecules.

One may read the IC50 as the concentration at which inhibition is half-maximal.

The target in the assay is T1, RORc ligand binding domain (Homo sapiens, UniProt P51449).
T1 construct: host or cells: E. coli
T1 sequence (P51449 269-508 limits assumed): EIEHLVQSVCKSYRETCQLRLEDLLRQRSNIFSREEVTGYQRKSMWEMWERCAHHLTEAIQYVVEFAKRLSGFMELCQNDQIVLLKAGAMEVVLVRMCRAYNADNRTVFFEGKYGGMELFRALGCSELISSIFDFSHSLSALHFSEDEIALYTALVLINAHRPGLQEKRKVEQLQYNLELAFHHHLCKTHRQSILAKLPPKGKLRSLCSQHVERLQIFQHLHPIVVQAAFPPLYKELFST
Kind of assay: In vitro RORc ligand binding assay (25-[3H]hydroxycholesterol displacement, filter binding). Particulars: 6 nM 25-[3H]hydroxycholesterol, 0.6 ug/mL RORc receptor, 3 h at 25° C. Here is the method: Example 17: In Vitro RORc Ligand Binding Assay
This assay was used to determine a compound's potency in inhibiting activity of RORc by determining, Kiapp, IC50, or percent inhibition values.
On day of the assay, 100 uL of 0.05% CHAPS (in deionized H2O) was added to all wells of the GFB Unifilter plate and allowed soak for 1 h. A wash buffer of 50 mM HEPES (pH 7.4), 150 mM NaCl, and 5 mM MgCl2 was prepared to wash the filter plate. To prepare an assay buffer, BSA was added to the wash buffer to reach 0.01% and DTT was added to reach 1 mM.
For IC50 mode, 10 mM compound stocks were serially diluted in DMSO with DMSO to give 20× required final concentration in DMSO (15 uL compound+30 uL DMSO). The 20× compound stocks were diluted in DMSO with Assay Buffer 4-fold to reach 5× the final test concentration in 25% DMSO (10 uL compound+30 uL Assay Buffer). Solutions were mixed by aspiration several times with a pipette set on 50 uL volume. For the assay, 10 uL of 5× compound stock solutions in 25% DMSO were added to the assay plate in duplicate.
For two point screening, 10 mM stock compound solutions were diluted in DMSO to obtain 200 uM (20× the high test concentration) and then diluted 10-fold further to reach 20 uM (20× the low test concentration). The 20× stocks were diluted 4-fold with Assay Buffer (10 uL compound+30 uL Assay Buffer) to reach 5× the test concentrations (50 uM and 5 uM) and 10 uL were added to two assay plates for the duplicate wells. With each concentration tested on 2 plates, each set of 80 compounds used 4 assay plates (1 uM and 10 uM, with n=2).
25-hydroxycholesterol (1 uM) was used to determine the level of NSB signal is prepared in DMSO as for compounds above, then diluted in Assay Buffer to give a final concentration of 5 uM. For 25-hydroxycholesterol in 25% DMSO/75% Assay Buffer; 10 uL per well was used for NSB samples. Wells for Total Binding and No Receptor sample determination contained 10 uL of 25% DMSO/75% Assay Buffer per well.
25-[^3H]hydroxycholesterol was diluted in Assay Buffer to obtain 15 nM and vortex to mix. Add 20 uL to all wells to reach 6 nM final concentration in the assay.
Stock receptor solution was diluted in assay buffer to obtain 1.5 ug/mL in Assay Buffer. 20 uL was added to all wells. For No Receptor samples, 20 uL Assay Buffer was substituted for receptor solution.
Assay plates were 96-well polypropylene V-bottom plates. 10 uL of 5× compound in 25% DMSO/75% Assay Buffer was added to Test wells. 10 uL of 25% DMSO/75% Assay Buffer was added to Total Binding or No Receptor wells. 10 uL of 5 uM 25-hydroxycholesterol in 25% DMSO/75% Assay Buffer was added to NSB wells. 20 uL of 15 nM 25-[^3H]hydroxycholesterol prepared in Assay Buffer was added to all wells. 20 uL of 1.5 ug/mL RORc receptor was added to wells (or […] Assay Buffer to No R wells). Following addition to the wells, the plates were incubated 3 h at 25° C.
Using a Packard Filtermate Harvester, the filter plate were washed 4 times following transfer of the incubated samples. Plates were dry-filtered completely (2 h at 50° C. or overnight at room temperature). 50 uL Microscint 0 was added to all wells and read on Topcount protocol Inverted.
Final concentrations were as follows: 50 mM HEPES buffer (pH 7.4); 150 mM NaCl; 1 mM DTT; 5 mM MgCl2; 0.01% BSA; 5% DMSO; 0.6 ug/mL RORc receptor; 6 nM 25-[^3H]hydroxycholesterol. For NSB wells, 1 uM 25-hydroxycholesterol was also present.
The molecule `CC1(C)[C@H]2CC[C@]1(Cc1ncon1)c1nnc(-c3c(F)cccc3F)cc12` [Example 57, (5R,8R)-3-(2,6-difluorophenyl)-9,9-dimethyl-8-(1,2,4-oxadiazol-3-ylmethyl)-5,6,7,8-tetrahydro-5,8-methanocinnoline] gave a 50% inhibitory concentration (IC50) of 85 nM.

Turning to `CC1(C)[C@H]2CC[C@]1(Cc1noc(O)n1)c1nnc(-c3c(F)cccc3F)cc12` [Example 58, 3-{[(5R,8R)-3-(2,6-difluorophenyl)-9,9-dimethyl-6,7-dihydro-5,8-methanocinnolin-8(5H)-yl]methyl}-1,2,4-oxadiazol-5-ol], the IC50 was 1050 nM.

In the case of `Cc1nc(C[C@@]23CC[C@@H](c4cc(-c5c(F)cccc5F)nnc42)C3(C)C)no1` [Example 59, (5R,8R)-3-(2,6-difluorophenyl)-9,9-dimethyl-8-[(5-methyl-1,2,4-oxadiazol-3-yl)methyl]-5,6,7,8-tetrahydro-5,8-methanocinnoline], the IC50 stood at 106 nM.

Take `Cc1noc([C@]23CC[C@H](c4cc(-c5c(F)cccc5F)nnc42)C3(C)C)n1` [Example 60, (5S,8S)-3-(2,6-difluorophenyl)-9,9-dimethyl-8-(3-methyl-1,2,4-oxadiazol-5-yl)-5,6,7,8-tetrahydro-5,8-methanocinnoline]: the half-maximal inhibitory concentration (IC50) is 415 nM.

In turn, `CC1(C)[C@H]2CC[C@]1(Cc1noc(CO)n1)c1nnc(-c3c(F)cccc3F)cc12` [Example 61, (3-{[(5R,8R)-3-(2,6-difluorophenyl)-9,9-dimethyl-6,7-dihydro-5,8-methanocinnolin-8(5H)-yl]methyl}-1,2,4-oxadiazol-5-yl)methanol] came in with a half-inhibitory concentration (IC50) of 323 nM.

Turning to `COCc1nc(C[C@@]23CC[C@@H](c4cc(-c5c(F)cccc5F)nnc42)C3(C)C)no1` [Example 62, (5R,8R)-3-(2,6-difluorophenyl)-8-{[5-(methoxymethyl)-1,2,4-oxadiazol-3-yl]methyl}-9,9-dimethyl-5,6,7,8-tetrahydro-5,8-methanocinnoline], the IC50 turned out to be 129 nM.

Regarding `COC(=O)c1ccc(COC[C@]23CC[C@H](c4cc(-c5ccccc5F)nnc42)C3(C)C)cc1` [Example 63, methyl 4-({[(5S,8S)-3-(2-fluorophenyl)-9,9-dimethyl-6,7-dihydro-5,8-methanocinnolin-8(5H)-yl]methoxy}methyl) benzoate], the IC50 worked out at 136 nM.

Molecule `Cc1noc([C@@]23CC[C@@H](c4cc(-c5c(F)cccc5F)nnc42)C3(C)C)n1` [Example 64, (5R,8R)-3-(2,6-difluorophenyl)-9,9-dimethyl-8-(3-methyl-1,2,4-oxadiazol-5-yl)-5,6,7,8-tetrahydro-5,8-methanocinnoline] had an IC50 of 67 nM.

`Cc1nnc(C[C@@]23CC[C@@H](c4cc(-c5c(F)cccc5F)nnc42)C3(C)C)o1` [Example 65, (5R,8R)-3-(2,6-difluorophenyl)-9,9-dimethyl-8-[(5-methyl-1,3,4-oxadiazol-2-yl)methyl]-5,6,7,8-tetrahydro-5,8-methanocinnoline] gave an IC50 of 131 nM.

As for `CN(C)Cc1nc(C[C@@]23CC[C@@H](c4cc(-c5c(F)cccc5F)nnc42)C3(C)C)no1` [Example 66, 1-(3-{[(5R,8R)-3-(2,6-difluorophenyl)-9,9-dimethyl-6,7-dihydro-5,8-methanocinnolin-8(5H)-yl]methyl}-1,2,4-oxadiazol-5-yl)-N,N-dimethylmethanamine], the IC50 was found to be 298 nM.

For `Cc1nnc([C@@]23CC[C@@H](c4cc(-c5c(F)cccc5F)nnc42)C3(C)C)o1` [Example 67, (5R,8R)-3-(2,6-difluorophenyl)-9,9-dimethyl-8-(5-methyl-1,3,4-oxadiazol-2-yl)-5,6,7,8-tetrahydro-5,8-methanocinnoline], the concentration for half-maximal inhibition (IC50) was determined as 31 nM.

In the case of `CC1(C)[C@H]2CC[C@]1(c1nnc(CO)o1)c1nnc(-c3c(F)cccc3F)cc12` [Example 68, {5-[(5R,8R)-3-(2,6-difluorophenyl)-9,9-dimethyl-6,7-dihydro-5,8-methanocinnolin-8(5H)-yl]-1,3,4-oxadiazol-2-yl}methanol], the IC50 amounted to 116 nM.

The molecule `CC1(C)[C@@H]2CC[C@@]1(C(=O)N1CCCC1)c1nnc(-c3c(F)cccc3F)cc12` [Example 69, [(5S,8S)-3-(2,6-difluorophenyl)-9,9-dimethyl-6,7-dihydro-5,8-methanocinnolin-8(5H)-yl](pyrrolidin-1-yl)methanone] returned an IC50 of 23 nM.

In turn, `CN(C(=O)[C@]12CC[C@H](c3cc(-c4c(F)cccc4F)nnc31)C2(C)C)C1CCC1` [Example 70, (5S,8S)-N-cyclobutyl-3-(2,6-difluorophenyl)-N,9,9-trimethyl-6,7-dihydro-5,8-methanocinnoline-8(5H)-carboxamide] yielded an IC50 of 215 nM.

Molecule `CC1(C)[C@@H]2CC[C@@]1(COCc1ccc(C(=O)O)cc1)c1nnc(-c3ccccc3F)cc12` [Example 71, 4-({[(5S,8S)-3-(2-fluorophenyl)-9,9-dimethyl-6,7-dihydro-5,8-methanocinnolin-8(5H)-yl]methoxy}methyl) benzoic acid] came in with a half-maximal inhibitory concentration (IC50) of 284 nM.

Turning to `CC1(C)[C@@H]2CC[C@@]1(COCc1ccc(C(N)=O)cc1)c1nnc(-c3ccccc3F)cc12` [Example 72, 4-({[(5S,8S)-3-(2-fluorophenyl)-9,9-dimethyl-6,7-dihydro-5,8-methanocinnolin-8(5H)-yl]methoxy}methyl) benzamide], the half-inhibitory concentration (IC50) is 158 nM.

Molecule `CN(C)C(=O)[C@]12CC[C@H](c3cc(-c4c(F)cccc4F)nnc31)C2(C)C` [Example 73, (5S,8S)-3-(2,6-difluorophenyl)-N,N,9,9-tetramethyl-6,7-dihydro-5,8-methanocinnoline-8(5H)-carboxamide] displayed an IC50 of 29 nM.

On to `CC1(C)CN(C(=O)[C@]23CC[C@H](c4cc(-c5c(F)cccc5F)nnc42)C3(C)C)C1` [Example 74, [(5S,8S)-3-(2,6-difluorophenyl)-9,9-dimethyl-6,7-dihydro-5,8-methanocinnolin-8(5H)-yl](3,3-dimethylazetidin-1-yl)methanone], for which the IC50 was found to be 693 nM.

`Cc1noc(C[C@@]23CC[C@@H](c4cc(-c5c(F)cccc5F)nnc42)C3(C)C)n1` [Example 75, (5R,8R)-3-(2,6-difluorophenyl)-9,9-dimethyl-8-[(3-methyl-1,2,4-oxadiazol-5-yl)methyl]-5,6,7,8-tetrahydro-5,8-methanocinnoline] displayed a 50% inhibitory concentration (IC50) of 89 nM.

Consider `CC1(C)[C@H]2CC[C@]1(C(N)=O)c1nnc(-c3c(F)cccc3F)cc12` [Example 77, (5R,8R)-3-(2,6-difluorophenyl)-9,9-dimethyl-6,7-dihydro-5,8-methanocinnoline-8(5H)-carboxamide], for which the half-inhibitory concentration (IC50) came out at 1460 nM.

With `CC1(C)[C@H]2CC[C@]1(C#N)c1nnc(-c3c(F)cccc3F)cc12` [Example 78, (5R,8R)-3-(2,6-difluorophenyl)-9,9-dimethyl-6,7-dihydro-5,8-methanocinnoline-8(5H)-carbonitrile], the IC50 is 925 nM.

Turning to `CN(C)C1CN(C(=O)[C@]23CC[C@H](c4cc(-c5c(F)cccc5F)nnc42)C3(C)C)C1` [Example 79, [(5S,8S)-3-(2,6-difluorophenyl)-9,9-dimethyl-6,7-dihydro-5,8-methanocinnolin-8(5H)-yl][3-(dimethylamino)azetidin-1-yl]methanone], the IC50 was found to be 1120 nM.
